Here are results for two compounds from US8178135B2, “Aqueous solution of conophylline and/or conophyllidine” (Keio University, priority 2006, dated 2012).

The nature of series [1]: Crude extract II absorption test in GK rats. It is filed as in vivo, rat. Conditions: Crude extract II 4.3 or 13 mg/kg, 1.5-24 h. The procedure: Sixteen 10-week old GK rats were divided into four groups (n=4 per group). Two groups (the fasted groups) were fasted for 16 hours, and the remaining two groups (the fed groups) were allowed ad libitum access to chow and water. The fed groups received Crude extract II (containing Tween 80) at 4.3 mg/kg or 13 mg/kg. Blood was taken at 1.5, 3, 6, 12, and 24 hours post administration and plasma conophylline concentration was measured. Likewise, the fasted groups also received Crude extract II and plasma conophylline concentration was measured.

Series [2] is described as follows: Concentration dissolved after neutralization with pectin added (partially purified by fractionation). The series is classed as physicochemical. Conditions: for concentration in solution: Control: filled up only with distilled water, not neutralized. The procedure:
10 mg of the dried product obtained in Example 5 was dissolved in 5 ml of 0.1 N hydrochloric acid. This solution was dispensed in 0.5 ml aliquots into test tubes. Then, 10 μl or 100 μl of a 0.25% aqueous solution of pectin (Genue pectin type YM-150-LJ) was added and filled up to a total volume of 2 ml with distilled water. Meanwhile, only distilled water was added to some of the test tubes in a total volume of 2 ml.
Subsequently, the solution, after being adjusted to pH 6.0 with sodium carbonate aqueous solution, was filled up to a total volume of 2.5 ml and was centrifuged at 5,000×g for 10 min. The supernatant was recovered and the concentrations of conophylline and conophyllidine were measured. Meanwhile, the concentrations of conophylline and conophyllidine in the solutions, which was made by filled up to a total volume of 2.5 ml only with distilled water, were also measured as the control.

Series [3] in a line: Blood concentrations after oral administration of Crude extract I to rats. It is filed as in vivo, rat. The method, then: One drop of Tween 80 was added to the crude extract (0.05 g) obtained in Example 1, which was suspended in 5-ml of water for injection. This suspension was administered to 5-week old rats (Crj:CD(SD) IGS, SPF, male) using a sonde by forced oral administration at a dose of 5 ml/kg body weight (n=2). Blood was taken from the orbital venous plexus of each rat at 0.5, 1, 2, 4, 8, 24 hours post administration and serum was recovered by centrifugation. Then, the concentrations of conophylline and conophyllidine in the blood were measured (Table 7) by the same method as in Example 8. As the control, water for injection containing one drop of Tween80 was administered orally at a dose of 5 ml/kg body weight (n=2) and the blood concentrations were measured in the same manner.

For series [4], the system named is model animals of neonatal diabetes. Conditions: intraperitoneally administered; cited from earlier work.
A further series has as its system pancreatic β cells. Conditions: cited from earlier work.
The nature of series [5]: Concentration dissolved after neutralization with pectin or sodium polyacrylate (ethanol crude extract). The series is classed as physicochemical. Conditions: for concentration in solution: Control: filled up only with distilled water, not neutralized. The procedure:
Crude extract (250 mg) obtained in Example 1 was dissolved in 5 ml of 0.1 N hydrochloric acid. Then, after insoluble matter was removed by centrifugation (1,500×g, 5 min), the solution was dispensed in 0.5 ml aliquots into test tubes. Then, 10 μl or 100 μl of a 0.2% aqueous solution of pectin (Genue pectin type YM-150-LJ) or 0.2% aqueous solution of sodium polyacrylate (degrees of polymerization=30,000 to 40,000, manufactured by Wako Pure Chemical Industries, Ltd.) was added and filled up to a total volume of 2 ml with distilled water. Meanwhile, only distilled water was added to some of the test tubes in a total volume of […] (without an additive).
Subsequently, the solution, after being adjusted to pH 6.0 with sodium carbonate aqueous solution, was filled up to a total volume of 2 ml and was centrifuged at 5,000×g for 10 min. The supernatant was recovered and the concentrations of conophylline and conophyllidine were measured. Meanwhile, the concentrations of conophylline and conophyllidine in the solutions, which was made by filled up to a total volume of 2.5 ml only with distilled water, were also measured as the control.

A short description of series [6]: Storing stability of water-soluble composition extracted with citric acid. Conditions: dried composition. The series is classed as physicochemical. The procedure:
0.1 M citric acid was added to the pulverized product of the dried leaves obtained by the same method as in Example 2, and stirred at 60° C. After insoluble matter was filtered off, the solution was neutralized to pH 6.0 with 0.1 N sodium hydroxide, dispensed in 1 ml aliquots into test tubes, and concentrated to dryness by centrifugation.
First, 1 ml of 50% ethanol was added to one of the test tubes to dissolve solid content. The solution was filtered through a 0.2 μm membrane filter, and then conophylline and conophyllidine were analyzed by HPLC.
Next, the remaining test tubes were divided into five groups, each of which being stored at −30° C. (shielded from light), 4° C. (shielded from light), 4° C. (not shielded from light), 30° C. (shielded from light), and 50° C. (shielded from light). After a lapse of a certain period of time, the composition was dissolved by addition of 50% ethanol, filtered, and analyzed by HPLC.

Series [7] is described as follows: Solubility in distilled water or 1% SDS. The series is classed as physicochemical. The procedure:
10 mg of weighed Crude extract I obtained in Example 1 was added to 1 ml of distilled water or 1 ml of 1% sodium dodecyl sulfate (SDS) aqueous solution and was stirred vigorously. The solution was centrifuged at 5,000×g for 2 min and the concentrations of conophylline and conophyllidine in the supernatant were measured.

Where [8] appears, read: male, Crj:CD(SD) IGS, rat, in vivo, po, blood concentration.
[9] abbreviates: pH 6.0, Sodium polyacrylate 10 μg/ml.
The mark [10] stands for this setting: pH 6.0, Sodium polyacrylate 100 μg/ml.

Where two headings read alike, the source gives them in different places.

Take `CC[C@@]12CC(C(=O)OC)=C3Nc4cc5c(cc4[C@@]34CCN(C[C@H]3O[C@H]31)[C@@H]24)[C@@H]1[C@H](O5)[C@@H](O)[C@@]2(CC)CC(C(=O)OC)=C3Nc4c(cc(O)c(OC)c4OC)[C@@]34CCN1[C@@H]24` [Conophylline, conophylline]: the “blood (plasma) conophylline concentration, fasted vs fed groups” value in series [1] is recorded as “slightly higher in the fasted groups, but no significant difference”. Besides, the concentration in solution in series [2] worked out at 3.7 µg/mL; in series [5], 8.42 µg/mL. Moreover, the “concentration in supernatant after neutralization” value in series [2] (pH 6.0, Pectin 10 μg/ml) was found to be 2.1 µg/mL; in series [2] (pH 6.0, Pectin 100 μg/ml), 2.6 µg/mL; in series [2] (pH 6.0, pectin 0 μg/ml), 1.5 µg/mL; in series [5] (pH 6.0, Pectin 10 μg/ml), 1.74 µg/mL; in series [5] (pH 6.0, Pectin 100 μg/ml), 3.83 µg/mL; in series [5] (setting [9]), 1.87 µg/mL. Also, the “concentration in supernatant after neutralization” value in series [5] (setting [10]) was found to be 4.85 µg/mL; in series [5] (pH 6.0, additive None) it was 2.52 µg/mL. Moreover, the blood concentration in series [3] (male, Crj:CD(SD) IGS, rat, in vivo, po, 0.5 h) came to 0.398 µg/mL; in series [3] (male, Crj:CD(SD) IGS, rat, in vivo, po, 1 h) it was 0.472 µg/mL; in series [3] (male, Crj:CD(SD) IGS, rat, in vivo, po, 24 h), 0.108 µg/mL. The compound further had a concentration at 0.5 h in series [3] (setting [8]) of 332 ng/mL. The concentration at 1 h in series [3] (setting [8]) was 270 ng/mL. For the same compound, in series [3] (setting [8]), the concentration at 24 h is 90 ng/mL. Moreover, in series [4], the blood glucose levels result was “significantly suppressing increased blood glucose levels”. For the same compound, in the series with pancreatic β cells, the “regeneration of pancreatic β cells” value is recorded as “activate regeneration of pancreatic β cells”.

For `CC[C@@]12C=CCN3CC[C@]4(C(=C(C(=O)OC)C1)Nc1cc5c(cc14)[C@H]1[C@@H](O5)[C@H](O)[C@]4(CC)CC(C(=O)OC)=C5Nc6c(cc(O)c(OC)c6OC)[C@@]56CCN1[C@H]46)[C@H]32` (stereo in doubt) [Conophyllidine, conophyllidine], the concentration in solution stood at 4.6 µg/mL in series [2] and 11.83 µg/mL in series [5]. In addition, the “concentration in supernatant after neutralization” value worked out at 2.2 µg/mL in series [2] (pH 6.0, Pectin 10 μg/ml); 3.0 µg/mL in series [2] (pH 6.0, Pectin 100 μg/ml); 1.5 µg/mL in series [2] (pH 6.0, pectin 0 μg/ml); 2.42 µg/mL in series [5] (pH 6.0, Pectin 10 μg/ml); 5.19 µg/mL in series [5] (pH 6.0, Pectin 100 μg/ml); 2.50 µg/mL in series [5] (setting [9]). The “concentration in supernatant after neutralization” value was found to be 8.45 µg/mL in series [5] (setting [10]) and 3.27 µg/mL in series [5] (pH 6.0, additive None). In addition, the blood concentration amounted to 0.065 µg/mL in series [3] (Crude extract I oral, rats (animals 3, 4), 0.5 h); 0.062 µg/mL in series [3] (Crude extract I oral, rats (animals 3, 4), 1 h); 0.032 µg/mL in series [3] (Crude extract I oral, rats (animals 3, 4), 2 h); 0.025 µg/mL in series [3] (Crude extract I oral, rats (animals 3, 4), 4 h); 0.013 µg/mL in series [3] (Crude extract I oral, rats (animals 3, 4), 8 h); 0.009 µg/mL in series [3] (Crude extract I oral, rats (animals 3, 4), 24 h). In series [3] (male, Crj:CD(SD) IGS, rat, in vivo, po, 0.05 g/kg, Crude extract I oral, rats (animals 3, 4), 0.5 h, read-out: blood concentration), the concentration at 0.5 h came out at 54 ng/mL. The concentration at 1 h in series [3] (male, Crj:CD(SD) IGS, rat, in vivo, po, 0.05 g/kg, Crude extract I oral, rats (animals 3, 4), 1 h, read-out: blood concentration) was determined as 61 ng/mL. Further, in series [3] (male, Crj:CD(SD) IGS, rat, in vivo, po, 0.05 g/kg, Crude extract I oral, rats (animals 3, 4), 2 h), the concentration at 2 h turned out to be 40 ng/mL. In series [3] (male, Crj:CD(SD) IGS, rat, in vivo, po, 0.05 g/kg, Crude extract I oral, rats (animals 3, 4), 4 h), this compound registered a concentration at 4 h of 36 ng/mL. In series [3] (male, Crj:CD(SD) IGS, rat, in vivo, po, 0.05 g/kg, Crude extract I oral, rats (animals 3, 4), 8 h), this compound gave a concentration at 8 h of 24 ng/mL. Also, the concentration at 24 h in series [3] (male, Crj:CD(SD) IGS, rat, in vivo, po, 0.05 g/kg, Crude extract I oral, rats (animals 3, 4), 24 h, read-out: blood concentration) came out at 13 ng/mL. Also, the storing stability result in series [6] (4° C., not shielded from light) is listed as “gradually decreased (degraded)”; in series [6] (−30, 4, 30, 50° C., shielded from light), “very stable”. Further, the concentration in supernatant was 2.97 µg/mL in series [7] (10 mg Crude extract I in 1 ml 1% SDS) and 0.68 µg/mL in series [7] (10 mg Crude extract I in 1 ml Distilled water). Besides, in the series with pancreatic β cells, the “regeneration of pancreatic β cells” value is given as “activate regeneration of pancreatic β cells”.
